In patent US20160257697A1, “THIOPHENE-SUBSTITUTED TETRACYCLIC COMPOUNDS AND METHODS OFUSE THEREOF FOR THE TREATMENT OF VIRAL DISEASES” (priority 2013, published 2016):
Where two headings read alike, the source gives them in different places.

What was measured:
Assay in all cases: microbe, parasite or virus in culture
Assay type in all cases: cell-based, Hepatitis C virus (HCV)
HCV replicon 1AQ30D = conditions: Hepatitis C virus, Replicon Assay B
Experimental: (§1) In an alternate assay (“Replicon Assay B”), 1000 cells were seeded per well in a 384-well collagen coated black plate from Greiner bio-one (Cat #781946) in 5% FBS. Inhibitors of this invention were added at 24 h post-seeding, and the plates were incubated for 3 days. Cells were subsequently lysed with Qiagen lysis buffer (Cat #1062731) to extract the RNA. HCV replicon RNA level was measured by real-time PCR using the RNA-to-CT kit from Applied Biosystem (Cat #4392656) and genotype-specific primers and probes. The amplicon was located within NS5B. […] (SEQ. ID NO. 2); the probe sequence was FAM-labeled […] (SEQ. ID NO. 3).
(§2) The real-time RT-PCR reactions were run on ABI PRISM 7900HT or Viia7 Sequence Detection System using the following program: 48° C. for 30 minutes, 95° C. for 10 minutes, 40 cycles of 95° C. for 15 sec, 60° C. for 1 minutes.
(§3) Data for replicons 1A, 1AY93H and 2B were obtained using Replicon Assay A and data for replicons 1AQ30D and 1B were obtained using Replicon Assay B.

HCV replicon 2B = conditions: Replicon Assay A
Procedure, shortened: (§4)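 HCV replicon RNA levels were quantified by TaqMan RT-PCR after 3-day compound exposure (0.5% DMSO, 5% FBS). Cyclophilin RNA, co-amplified in the same reaction, served as endogenous control; Ct values were converted to RNA amounts using linear regression standard curves.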

HCV replicon 1AY93H = conditions: Replicon Assay A
Procedure, shortened: as §4

HCV replicon 1A = conditions: Replicon Assay A
Procedure, shortened: as §4

HCV replicon 1B = conditions: Replicon Assay B
Experimental: as §1, §2, §3

[1] = read-out: 1A Q30D IC50 (nM), replicon 1AQ30D
[2] = Hepatitis C virus, read-out: 2B IC50 (nM), replicon 2B
[3] = read-out: 1A Y93H IC50, replicon 1AY93H
[4] = read-out: 2B IC50, HCV replicon 2B
[5] = read-out: 1A Y93H IC50, HCV replicon 1A Y93H

SMILES | IC50 (HCV replicon 1AQ30D; [1]) | IC50 (HCV replicon 1AY93H; [3]) | IC50 (HCV replicon 2B; read-out: 2B IC50, replicon 2B) | IC50 (HCV replicon 1B; Hepatitis C virus, replicon 1B) | IC50 (HCV replicon 1A; replicon 1A) | other results
COC(=O)N[C@H](C(=O)N1CCC[C@H]1c1ncc(-c2cc(F)c3c(c2)OC(c2csc(C4CC4)c2)n2c-3cc3cc(-c4cnc([C@@H]5CCCN5C(=O)[C@@H](NC(=O)OC)C(C)C)[nH]4)ccc32)[nH]1)C(C)C (single isomer, unassigned) [Compound 322] | 0.82 nM | 0.0297 nM |  |  |  | IC50 (HCV replicon 2B; [2]): 0.29 nM
CCCc1ccc(C2Oc3cc(-c4cnc([C@@H]5CCCN5C(=O)[C@@H](NC(=O)OC)C(C)C)[nH]4)cc(F)c3-c3cc4cc(-c5cnc([C@@H]6CCCN6C(=O)[C@@H](NC(=O)OC)C(C)C)[nH]5)ccc4n32)s1 (some centres unmarked) [Compound 34] | 0.16 nM |  |  |  |  | IC50 (HCV replicon 2B; [2]): 0.1 nM; IC50 (HCV replicon 1AY93H; Hepatitis C virus, read-out: 1A Y93H IC50 (nM), replicon 1AY93H): 0.005 nM; IC50 (HCV replicon 1A; Hepatitis C virus, replicon 1A): 0.0028 nM
COC(=O)NC(C(=O)N1CCC[C@H]1c1ncc(-c2ccc3c(c2)cc2n3C(c3ccc(C4CC4)s3)Oc3cc(-c4cnc([C@@H]5CCCN5C(=O)[C@@H](NC(=O)OC)C(C)C)[nH]4)cc(F)c3-2)[nH]1)C1CC(C)(C)OC(C)(C)C1 (single isomer, unassigned) [Compound 421] |  |  |  |  |  | IC50 (HCV replicon 1AQ30D; read-out: 1A Q30D IC50, HCV replicon 1A Q30D): 0.126 nM; IC50 (HCV replicon 2B; [4]): 0.0184 nM; IC50 (HCV replicon 1AY93H; [5]): 0.0127 nM; IC50 (HCV replicon 1A; HCV replicon 1A): 0.0023 nM
COC(=O)N[C@H](C(=O)N1CCC[C@H]1c1ncc(-c2cc(F)c3c(c2)OC(c2ccc(C(C)C)s2)n2c-3cc3cc(-c4cnc([C@@H]5CCCN5C(=O)[C@@H](NC(=O)OC)C5CCOCC5)[nH]4)ccc32)[nH]1)C(C)C (single isomer, unassigned) [Compound 345] | 0.0235 nM | 0.0012 nM | 0.0072 nM |  |  | 
COC(=O)NC(C(=O)N1CCC[C@H]1c1ncc(-c2cc(F)c3c(c2)OC(c2ccc(C4CC4)s2)n2c-3cc3cc(-c4cnc([C@@H]5CCCN5C(=O)[C@@H](NC(=O)OC)C5CCOCC5)[nH]4)ccc32)[nH]1)C(C)(C)F (single isomer, unassigned) [Compound 169] |  | 0.045 nM | 0.075 nM | 0.0034 nM | 0.0012 nM | 
CCc1ccc(C2Oc3cc(-c4c[nH]c([C@@H]5CCCN5C(=O)[C@@H](NC(=O)OC)C(C)C)n4)ccc3-c3cc4c(F)c(-c5c[nH]c([C@@H]6CCCN6C(=O)C(NC(=O)OC)C6C[C@@H](C)O[C@@H](C)C6)n5)ccc4n32)s1 (single isomer, unassigned) [Compound 361] |  | 0.138 nM | 0.0389 nM | 0.0035 nM | 0.0036 nM | 
COC(=O)NC(C(=O)N1CCC[C@H]1c1ncc(-c2ccc3c(c2)cc2n3C(c3cc(C)c(C)s3)Oc3cc(-c4cnc([C@@H]5CCCN5C(=O)[C@@H](NC(=O)OC)C5CCOCC5)[nH]4)cc(F)c3-2)[nH]1)C(C)(C)F (single isomer, unassigned) [Compound 130] |  | 0.24 nM | 0.24 nM | 0.0036 nM | 0.0017 nM | 
COC(=O)N[C@H](C(=O)N1CCC[C@H]1c1ncc(-c2cc(F)c3c(c2)OC(c2ccc(C(C)(C)O)s2)n2c-3cc3cc(-c4cnc([C@@H]5CCCN5C(=O)[C@@H](NC(=O)OC)C(C)C)[nH]4)ccc32)[nH]1)C(C)C (single isomer, unassigned) [Compound 83] |  | 0.42 nM | 0.8 nM | 0.0031 nM |  | IC50 (HCV replicon 1A; Hepatitis C virus, replicon 1A): 0.0032 nM
COC(=O)NC(C(=O)N1CCC[C@H]1c1ncc(-c2ccc3c(c2)cc2n3C(c3cc4c(s3)CCC4)Oc3cc(-c4cnc([C@@H]5CCCN5C(=O)[C@@H](NC(=O)OC)C(C)C)[nH]4)cc(C)c3-2)[nH]1)C1CCOC(C)(C)C1 (single isomer, unassigned) [Compound 852] |  |  |  |  |  | IC50 (HCV replicon 1B; Hepatitis C virus, HCV replicon 1B): 0.0025 nM; IC50 (HCV replicon 2B; [4]): 0.058 nM; IC50 (HCV replicon 1AY93H; [5]): 1.32 nM; IC50 (HCV replicon 1A; Hepatitis C virus, HCV replicon 1A): > 0.003 nM
COC(=O)N[C@H](C(=O)N1CCC[C@H]1c1ncc(-c2cc(F)c3c(c2)OC(c2ccc(C4CC4)s2)n2c-3c(C)c3cc(-c4cnc([C@@H]5CCCN5C(=O)[C@@H](NC(=O)OC)C(C)C)[nH]4)ccc32)[nH]1)C(C)C (single isomer, unassigned) [Compound 841] |  |  |  |  |  | IC50 (HCV replicon 1B; HCV replicon 1B): 0.0017 nM; IC50 (HCV replicon 2B; HCV replicon 2B, read-out: 2B IC50): 0.523 nM; IC50 (HCV replicon 1AY93H; HCV replicon 1A Y93H, read-out: 1A Y93H IC50): 0.849 nM; IC50 (HCV replicon 1A; HCV replicon 1A): 0.0026 nM
